# Test results reported in ChEMBL document CHEMBL4334525, “Alopecuroides A-E, Matrine-Type Alkaloid Dimers from the Aerial Parts of Sophora alopecuroides” (J Nat Prod, 2019).
# Calls of active or inactive are those of the source. The calls are words filed in the database; no cut-off is given here.
# Assays:
# [1] = tested on: RAW264.7; assay: Antiinflammatory activity against LPS-stimulated mouse RAW264.7 cells assessed as inhibition of LPS-induced IL-6 production by measuring IL-6 level at 50 uM preincubated for 2 hrs followed by LPS treatment and measured after 16 hrs by ELISA (reference value: 100 +/- 1.33%); format: functional; parameters: scale not given: the % may be the effect or the level left
# [2] = tested on: RAW264.7; assay: Antiinflammatory activity against LPS-stimulated mouse RAW264.7 cells assessed as inhibition of LPS-induced TNFalpha production by measuring TNFalpha level at 50 uM preincubated for 2 hrs followed by LPS treatment and measured after 16 hrs by ELISA (reference value: 100 +/- 0.45%); format: functional
# [3] = tested on: RAW264.7; assay: Cytotoxicity against mouse RAW264.7 cells at 50 uM after 24 hrs in presence of 1 ug/ml LPS by MTT assay; format: cell-based; details: raw264.7, 24 h
# [4] = tested on: RAW264.7; assay: Cytotoxicity against mouse RAW264.7 cells at 50 uM after 24 hrs by MTT assay; format: cell-based; details: raw264.7, 24 h
structure (smiles),measurement,setting,value
O=C1CCC[C@@H]2[C@H]3CCCN4CC([C@@H]5CC[C@H]6[C@@H]7[C@@H](CCCN75)CN5C(=O)CCC[C@H]65)=C[C@@H](CN12)[C@@H]34,Activity,[1],60.08%
same,TNFalpha level (% of LPS control),[2],70.86%
same,Activity,[3],Non-Toxic
same,Activity,[4],Non-Toxic
O=C1CCC[C@@H]2[C@H]3CCCN4CCC[C@@H](CN12)[C@@H]34 [MATRINE],Activity,[1],65.49%
same,TNFalpha level (% of LPS control),[2],72.48%
O=C1CCC[C@@H]2[C@H]3CC([C@H]4CC[C@H]5CN6C(=O)CCC[C@@H]6[C@H]6CCCN4[C@@H]56)=CN4CCC[C@@H](CN12)[C@@H]34,Activity,[1],73.9%
same,TNFalpha level (% of LPS control),[2],49.59%
same,Activity,[3],Non-Toxic
same,Activity,[4],Non-Toxic
N#C[C@H]1N2CCC[C@H]3[C@@H]2[C@H](CN2C(=O)CCC[C@H]32)[C@H]2O[C@]21[C@@H]1CC[C@H]2[C@@H]3[C@@H](CCCN31)CN1C(=O)CCC[C@H]21,Activity,[1],67.85%
same,TNFalpha level (% of LPS control),[2],96.64%
same,Activity,[3],Non-Toxic
same,Activity,[4],Non-Toxic
O=C1CCC[C@@H]2[C@H]3CCCN[C@H]3[C@H](CCC[C@H]3C[C@H]4CN5C(=O)CCC[C@@H]5[C@H]5CCCN(C3)[C@@H]45)CN12,Activity,[1],inactive
same,TNFalpha level (% of LPS control),[2],69.14%
same,Activity,[3],Non-Toxic
same,Activity,[4],Non-Toxic
N#C[C@@H]1N2CCC[C@H]3CN4C(=O)CCC[C@@H]4[C@H]([C@H]32)[C@@H]2O[C@]12[C@H]1CC[C@H]2CN3C(=O)CCC[C@@H]3[C@H]3CCCN1[C@@H]23,Activity,[1],52.87%
same,TNFalpha level (% of LPS control),[2],50.05%
same,Activity,[3],Non-Toxic
same,Activity,[4],Non-Toxic
